From patent US4489052A, “Quantitative autoradiographic mapping of focal herpes simplex virus encephalitis using a radiolabeled antiviral drug” (priority 1982, dated 1984)

Legend:
[1] = rat; cited from earlier work
[2] = Arterial plasma ^14 C activity by liquid scintillation counting; details: representative infected rat
HSV-1 = experiment: Quantitative autoradiography of ^14 C-FMAU uptake in HSV-1-infected rats (focal encephalitis); details: for ^14 C Radioactivity Concentration: ± SD
Source text: (§1) These initial studies reflect observations on ten rats receiving ^14 C-FMAU. Seven of these were infected, and three uninfected control rats were subjected to a cortical freeze lesion (13) to test the effects of necrosis and breakdown of the blood-brain barrier on drug distribution.

[3] = rat, in vivo
Source text: as §1

HSV = details: NIAID Collaborative Study; cited from earlier work

## Cc1cn([C@@H]2O[C@H](CO)[C@@H](O)[C@@H]2F)c(=O)[nH]c1=O [FMAU]
[1]
  metabolic alteration: only a minor fraction undergoes metabolic alteration

## Cc1cn([C@@H]2O[C@H](CO)[C@@H](O)[C@@H]2F)[14c](=O)[nH]c1=O [^14 C-FMAU]
[2]; 5 mg/kg i.v., to 6 hours
  plasma ^14 C-FMAU concentration time course: fell rapidly over the first 30 mins and more slowly thereafter
[2]; 6 hours after 5 mg/kg i.v.
  plasma ^14 C-FMAU concentration at the time of sacrifice: approximately 185 nCi/gm
HSV-1; 24 hours after isotope injection
  isotope uptake within infected brain regions: similarly enhanced within infected brain regions
HSV-1; 24 hours, apparently uninfected ependymal lining
  activity in lateral walls of the lateral ventricles: higher activity was noted
HSV-1; Brain (C): Background, left cortex, viral antigen -, 6 hours
  ^14 C Radioactivity Concentration: 104.35 ± 4.88 nCi/gm
HSV-1; Brain (C): Left ventricular choroid plexus, viral antigen -, 6 hours
  ^14 C Radioactivity Concentration: 188.59 ± 9.18 nCi/gm
HSV-1; Brain (C): Optic chiasm, right, viral antigen +, 6 hours
  ^14 C Radioactivity Concentration: 325.12 ± 16.46 nCi/gm
HSV-1; Brain (D): Background, left cortex, viral antigen -, 6 hours
  ^14 C Radioactivity Concentration: 95.29 ± 4.32 nCi/gm
HSV-1; Brain (D): Left hypothalamus, viral antigen +, 6 hours
  ^14 C Radioactivity Concentration: 1170.91 ± 66.90 nCi/gm
HSV-1; Brain (D): Left optic tract, viral antigen +, 6 hours
  ^14 C Radioactivity Concentration: 1105.89 ± 77.34 nCi/gm
HSV-1; Brain (D): Right hypothalamus, viral antigen +, 6 hours
  ^14 C Radioactivity Concentration: 1138.10 ± 99.57 nCi/gm
HSV-1; Brain (E): Background, left cortex, viral antigen -, 6 hours
  ^14 C Radioactivity Concentration: 96.78 ± 4.66 nCi/gm
HSV-1; Brain (E): Background, right central thalamus, viral antigen -, 6 hours
  ^14 C Radioactivity Concentration: 67.47 ± 3.90 nCi/gm
HSV-1; Brain (E): Left dorsomedial thalamus, viral antigen +, 6 hours
  ^14 C Radioactivity Concentration: 1183.53 ± 163.31 nCi/gm
HSV-1; Brain (E): Left lateral thalamus, viral antigen +, 6 hours
  ^14 C Radioactivity Concentration: 198.21 ± 21.00 nCi/gm
HSV-1; Brain (F): Background, left cortex, viral antigen -, 6 hours
  ^14 C Radioactivity Concentration: 106.57 ± 5.53 nCi/gm
HSV-1; Brain (F): Central midbrain, viral antigen +, 6 hours
  ^14 C Radioactivity Concentration: 468.81 ± 23.96 nCi/gm
HSV-1; Brain (G): Background, central brainstem, viral antigen -, 6 hours
  ^14 C Radioactivity Concentration: 110.97 ± 9.98 nCi/gm
HSV-1; Brain (G): Background, left cortex, viral antigen -, 6 hours
  ^14 C Radioactivity Concentration: 83.08 ± 7.70 nCi/gm
HSV-1; Brain (G): Pineal gland, viral antigen +, 6 hours
  ^14 C Radioactivity Concentration: 1509.18 ± 97.65 nCi/gm
HSV-1; Eye (B): Retina, inferior, viral antigen +, 6 hours
  ^14 C Radioactivity Concentration: 1528.07 ± 140.36 nCi/gm
HSV-1; Eye (B): Retina, posterior, viral antigen +, 6 hours
  ^14 C Radioactivity Concentration: 2447.81 ± 172.66 nCi/gm
HSV-1; Liver, viral antigen staining -, 6 hours after ^14 C-FMAU (5 mg/kg i.v.)
  ^14 C Radioactivity Concentration: 188.25 ± 13.19 nCi/gm
HSV-1; each HSV-1-infected rat
  ^14 C activity within infected regions vs background: exceeded background within infected regions and correlating closely with viral antigen staining in each case
HSV-1; radiolabeled FMAU, HSV-1 infection
  selectivity of uptake by infected brain cells: selectively taken up by infected brain cells
HSV-1; uninfected brain regions, 6 hours
  background distribution of ^14 C activity: quite uniform, with only minor variations among uninfected brain regions
[3]
  isotope uptake in or surrounding the area of necrosis: no increase in isotope uptake was detected

## Nc1ncnc2c1ncn2[C@@H]1O[C@H](CO)[C@@H](O)[C@@H]1O [ara-A]
HSV
  therapeutic effect in HSV encephalitis: less than optimal
